Test results: ChEMBL document CHEMBL1157539, “Thousands of chemical starting points for antimalarial lead identification” (Nature, 2010)

The molecules below were run on Plasmodium falciparum (assay: GSK_TCMDC: Inhibition of Plasmodium falciparum 3D7 in whole erythrocytes, using parasite LDH activity as an index of growth.). Conditions: Plasmodium falciparum, 3D7.
Assay type: functional, organism-based
For `CN1CCC(NCc2ccc(-c3ccc(C(F)(F)F)cc3)cc2)CC1`, the XC50 was 0.798 µM.
`FC(F)(F)c1ccc2[nH]c(-c3cccc(-c4ccc(CNCc5cnn(-c6ccccc6)n5)cc4)c3)nc2c1` gave an XC50 of 1.33 µM.
Molecule `Cc1cccc2nc(-c3cccc(-c4cccc(NC(=O)C(C)CN5CCN(C)CC5)c4)c3)[nH]c12` (configuration not stated) has an XC50 of 0.537 µM.
`O=C(NCCc1cccc(F)c1)c1cc(Br)cc(N2CCN(c3ccncc3)CC2)c1` was tested, and the XC50 was 0.764 µM.
Work on `CC(C)(C)c1ccc(CNC(=O)/C=C/c2ccc(CNC3CCNCC3)cc2)cc1` yielded an XC50 of 1.09 µM.
With `CN1CCC(NCc2cccc(-c3cccc(S(=O)(=O)NCc4ccccc4)c3)c2)CC1` the XC50 was 0.749 µM.
Molecule `O=C(C=Cc1ccc(Cl)c(Cl)c1)NC1CCN(CCc2ccccc2)CC1` has an XC50 of 0.594 µM.
`CCN(CC)CCN(Cc1ccc(-c2ccc(C(F)(F)F)cc2)cc1)C(=O)Cn1nc(-c2ccc(C(F)(F)F)cc2)ccc1=O` showed an XC50 of 0.797 µM.
For `Cc1ccc(NC(=O)c2ccc(CN3CCCN(Cc4cccc(O)c4)CC3)cc2)cc1F`, the XC50 was 0.591 µM.
In the case of `CCCCn1c(-c2ccco2)nc2c(c(=O)c3ccccc3n2C)c1=O`, the XC50 is reported as 1.24 µM.
`COc1ccc(NC(=O)/C=C/c2ccc(-c3ccc(-c4noc(C)n4)cc3)cc2)cc1OCCN(C)C` gave an XC50 of 1.37 µM.
With `O=C(Cc1cccc(Cl)c1)N1CCc2cc3nccc(N4CCN5CCC[C@H]5C4)c3cc21` the XC50 was 0.854 µM.
`COc1ccc(-c2ncnc(C(F)(F)F)c2-c2ccc(Cl)cc2)c(O)c1` was tested, and the XC50 was 0.805 µM.
For `CC1(C)NC(N)=NC(=N)N1OCCCOc1ccccc1Cl`, the XC50 was 0.0032 µM.
`COc1cc(C=NN=c2cc(C)[nH]c3ccccc23)cc(OC)c1OC` gave an XC50 of 0.73 µM.
Molecule `O=C(NC1CCN(c2ccnc3cc(Cl)ccc23)C1)c1ccc(C(F)(F)F)cc1` (configuration not stated) has an XC50 of 0.143 µM.
`COc1cc2ncnc(Nc3ccc(OCc4ccccc4)c(C(F)(F)F)c3)c2cc1OC` was tested, and the XC50 was 0.253 µM.
For `O=C(Nc1nc(-c2ccccn2)cs1)c1ccc(S(=O)(=O)N2CCc3ccccc32)cc1`, the XC50 was 0.83 µM.
`Oc1ccc(-c2ccccc2)cc1CN1CCCCC1` showed an XC50 of 0.903 µM.
Molecule `COc1ccc2nccc([C@@H](O)CN3CCC(NCc4cc5c(cc4F)SCC(=O)N5)CC3)c2n1` has an XC50 of 1 µM.
`COc1ccc(Cl)cc1NC(=O)Nc1ccnc2ccccc12` gave an XC50 of 0.675 µM.
In the case of `CCCCCC(C)C(C)c1cc(O)c2c(c1)OC(C)(C)CC2(O)c1ccnn1C` (configuration not stated), the XC50 is reported as 0.964 µM.
Work on `CN(C)CCOc1ccc(-n2c(-c3nonc3N)nc3cncc(-c4ccc(F)cc4)c32)cc1` yielded an XC50 of 0.866 µM.
`Cc1ccc(NC(=O)c2ccc3ncccc3c2)cc1OC1CCN(Cc2ccsc2)CC1` gave an XC50 of 0.93 µM.
For `Cn1cncc1CCN(Cc1ccc(-c2ccc(C(F)(F)F)cc2)cc1)C(=O)Cn1c(CCc2cccc(F)c2F)cc(=O)c2cccnc21`, the XC50 was 0.853 µM.
Molecule `Nc1nc(N)c2c(ccc3c2ccn3Cc2ccc(OCc3ccccc3)cc2)n1` has an XC50 of 0.933 µM.
In the case of `COc1cc(NC(=O)/C=C/c2cc(F)cc(F)c2F)cc(OCCN2CCN(CCN3CCOCC3)CC2)c1`, the XC50 is reported as 0.771 µM.
`COc1cccc2c(NN=Cc3cccc(Cl)c3)ccnc12` showed an XC50 of 0.838 µM.
With `Cc1cccc2nc(-c3ccc(-c4cccc(CNCc5cccc(N)c5)c4)cc3)[nH]c12` the XC50 was 0.39 µM.
`CS(=O)(=O)c1ccc(CCNCc2ccc(-c3ccc(CN(C(=O)c4ccc(Cl)nc4)C4CCN(Cc5ccccc5)CC4)cc3)nc2)cc1` showed an XC50 of 0.801 µM.
For `c1ccc2c(CNCCCN3CCN(CCCNCc4c5ccccc5cc5ccccc45)CC3)c3ccccc3cc2c1`, the XC50 was 0.182 µM.
`CN(C)C(=O)O[C@@H]1CN[C@H](C#Cc2cc3ncnc(Nc4ccc5c(cnn5Cc5cccc(F)c5)c4)c3s2)C1` showed an XC50 of 0.759 µM.
`Cc1ccccc1C1CCN(C2CCC(NC(=O)/C=C/c3cccc(Cl)c3F)CC2)CC1` (configuration not stated) was tested, and the XC50 was 1.14 µM.
In the case of `O=[N+]([O-])c1c(O)nc2c(c1O)CCC2`, the XC50 is reported as 1.05 µM.
`COc1ccc2ncc(OC)c(CCN3CC[C@@H](NCc4ccc5c(n4)NC(=O)CS5)[C@H](O)C3)c2n1` was tested, and the XC50 was 0.831 µM.
With `CCCOc1cccc(C(=O)N[C@@H](Cc2ccccc2)[C@H](O)CNCc2ccccc2OC)c1` the XC50 was 0.883 µM.
With `Cc1ccccc1C1CCN(C2CCC(NC(=O)c3cncc(-c4ccccc4)c3)CC2)CC1` (configuration not stated) the XC50 was 0.93 µM.
`CN(C)C=Nc1ccc(OCCCCCCOc2ccc(N=CN(C)C)cc2)cc1` was tested, and the XC50 was 0.133 µM.
`c1ccc(CN2CCC(NCc3cccc(-c4cncc5ccccc45)c3)CC2)cc1` showed an XC50 of 1.36 µM.
With `COc1ccc(Cl)cc1NC(=O)Nc1cc(C)nc2ccccc12` the XC50 was 0.287 µM.
`Cc1cc(N(C)C)nc(Nc2ccc(NC(=O)Nc3ccccc3)cc2)n1` gave an XC50 of 0.134 µM.
In the case of `CN(CCCN(C)c1cc(NC(=O)c2ccc(F)cc2)ccn1)Cc1cccc(F)c1`, the XC50 is reported as 1.22 µM.
For `COc1cccc(-c2[nH]c3ccccc3c2CN2CCC(c3c(C)cccc3C)CC2)c1`, the XC50 was 1.02 µM.
`NCC(=O)c1cc2c(cc1N)OCCO2` showed an XC50 of 1.36 µM.
`Cc1c(CN2CCC(N3CCC(C(=O)NC4CC4)CC3)CC2)[nH]c2c(Cl)cccc12` showed an XC50 of 1.19 µM.
`CO/N=C(\C)c1ccc2c(c1)CCN(CCC1CCC(NC(=O)/C=C/c3ccc(F)cc3)CC1)CC2` (configuration not stated) was tested, and the XC50 was 1.07 µM.
`N=C1NC(=O)C(=Cc2cn(-c3ccccc3)nc2-c2cccc(S(=O)(=O)N3CCCC3)c2)S1` showed an XC50 of 1.14 µM.
`CCCCCCC(C)(C)c1cc(O)c2c3c(c(=O)oc2c1)CCN(Cc1ccccc1)C3` was tested, and the XC50 was 0.217 µM.
With `O=C(NCc1ccc(C(=O)N2CCC(N3CCCCC3)CC2)cc1)c1cc(-c2cccc(C(F)(F)F)c2)ccc1O` the XC50 was 0.817 µM.
`COc1ccc(NC(=O)N2CCN(CCCCCNC(=O)/C=C/c3ccc(C(F)(F)F)cc3)CC2)cc1Cl` was tested, and the XC50 was 0.859 µM.
In the case of `Cc1[nH]c(C)c(-c2ccc(Oc3ccc(F)cc3)cc2)c(=O)c1Cl`, the XC50 is reported as 0.0505 µM.
`Nc1nc(N)c2c(Oc3ccc(Cl)c(Cl)c3)cccc2n1` showed an XC50 of 0.871 µM.
Molecule `O=C(CCc1cccnc1)Nc1cccc(-c2ccc(-c3nc4cc(C(F)(F)F)ccc4[nH]3)cc2)c1` has an XC50 of 0.867 µM.
Work on `O=C(Nc1cccc(-c2nn3ccccc3c2-c2ccnc(Nc3ccc(-c4cc[nH]n4)cc3)n2)c1)c1c(F)cccc1F` yielded an XC50 of 0.189 µM.
`CCCN(c1ccc(O)c(CN2CCCCC2)c1)c1ccc([N+](=O)[O-])cn1` was tested, and the XC50 was 0.805 µM.
`CN1CCN(CC(=O)Nc2cccc(-c3cccc(-c4nc5ccccc5[nH]4)c3)c2)CC1` showed an XC50 of 1.29 µM.
With `O=C(NC1CCCCC1)C1CCCN(C(=O)c2ccc(O)c(-c3ccc(Cl)c(Cl)c3)c2)C1` (configuration not stated) the XC50 was 0.903 µM.
Work on `CCOc1ccc(Br)cc1/C=C/C(=O)Nc1ccc2c(c1)CN(C)CCC2` yielded an XC50 of 0.824 µM.
Work on `COC(=O)C1(NC(=O)c2ccc(-n3nc(C)c(-c4ccccc4)c3N)cc2)CCCC1` yielded an XC50 of 0.37 µM.
`O=C(CCc1cccc(O)c1)NCC(NCCCNc1cc(=O)c2ccccc2[nH]1)c1cc(Br)cc(Br)c1` (configuration not stated) showed an XC50 of 1.17 µM.
In the case of `COc1ccc2c(N/N=C/c3ccccc3[N+](=O)[O-])ccnc2c1`, the XC50 is reported as 0.739 µM.
For `Cc1[nH]c(C)c(C(F)(F)F)c(=O)c1-c1ccc(Oc2ccc(OC(F)(F)F)cc2)cc1`, the XC50 was 0.173 µM.
`COc1ccc2ccc(F)c(CCN3CCC(NCc4cc5c(cn4)OCCO5)CC3)c2n1` showed an XC50 of 0.84 µM.
With `N=C(N)NN=Cc1ccc2ccc3ccccc3c2c1` the XC50 was 0.376 µM.
`COc1ccc2nccc([C@@H](O)CN3CCC(NC(=O)/C=C/c4cc(F)cc(NC(C)=O)c4)CC3)c2c1` showed an XC50 of 0.183 µM.
`CN(C)c1cc(C(=O)N[C@@H](Cc2ccccc2)[C@H](O)CNC2CCCCC2)cc2[nH]ccc12` was tested, and the XC50 was 1.07 µM.
With `N=C(N)Nc1nc(-c2cccc(NCCCCCCCCON3C(N)=NC(N)=NC34CCCCC4)c2)cs1` the XC50 was 0.226 µM.
Work on `CN(C)CCCOc1cc(NC(=O)Nc2ccc(-c3ccncc3)c3ccccc23)ccc1I` yielded an XC50 of 0.699 µM.
Work on `COc1ccc(C=NNc2nc3ccccc3[nH]2)cc1O` yielded an XC50 of 0.915 µM.
With `CC(C)CC(C)NC(=O)C1Cc2c([nH]c3ccc(F)cc23)C2(CCN(Cc3ccccc3)CC2)N1` (configuration not stated) the XC50 was 0.97 µM.
Work on `COc1nc2c(CCN3CC[C@H](NCc4ccc5c(c4)NC(=O)CO5)[C@H](O)C3)c(Cl)cnc2cc1F` yielded an XC50 of 1.02 µM.
`COc1ccc2ncc(F)c(CCN3C[C@H](CNCc4cc(F)c5c(c4)NC(=O)CO5)[C@H](O)C3)c2n1` showed an XC50 of 0.667 µM.
With `Fc1ccc2[nH]c(-c3cccc(-c4cccc(CN5CCN(c6ccncc6)CC5)c4)c3)nc2c1` the XC50 was 0.145 µM.
In the case of `CN(c1ccccc1C(=O)Nc1ccccc1Oc1ccccc1)S(=O)(=O)c1ccccc1`, the XC50 is reported as 1.15 µM.
Molecule `COc1ccc(-c2cccc(NC(=O)c3cccc(C#N)c3)c2)cc1CN1CCCC1` has an XC50 of 0.748 µM.
With `Cc1cccc2nc(-c3cccc(-c4ccc(NC(=O)CCc5c[nH]cn5)cc4)c3)[nH]c12` the XC50 was 0.302 µM.
`CC(C)(C)c1ccc(C(=O)Nc2ccc3nc4c(c(N)c3c2)CCCC4)cc1` gave an XC50 of 0.175 µM.
`O=C(NCCNc1ccnc2cc(Cl)ccc12)c1ccccc1F` showed an XC50 of 0.655 µM.
Work on `N#Cc1ccc2c(c1)CCN(CCC1CCC(NC(=O)c3cc4cccc([N+](=O)[O-])c4[nH]3)CC1)C2` (configuration not stated) yielded an XC50 of 0.684 µM.
Molecule `CC[C@H]1CN2CC[C@@H]1C[C@H]2[C@H](O)c1cc(N2CCCC(C)(C)C2)nc2ccc(OC)cc12` has an XC50 of 0.337 µM.
Work on `c1cc(CN2CCN(c3ccncc3)CC2)cc(-c2ccc(-c3nc4ccccc4[nH]3)s2)c1` yielded an XC50 of 0.148 µM.
Work on `O=C(N[C@H]1CCN(CCc2ccc(O[C@H]3CCNC3)cc2)C1)c1ccc(Cl)c(Cl)c1` yielded an XC50 of 0.828 µM.
`COc1ccc2c(Nc3ccc(N4CCN(C)CC4)cc3)cc(C)nc2c1` was tested, and the XC50 was 0.719 µM.
With `Brc1cnc(NC2=NCCN2)c(Br)c1` the XC50 was 0.335 µM.
In the case of `COc1ccc(S(=O)(=O)Nc2ccc(C(=O)NCc3ccccc3C(F)(F)F)cc2)cc1N1CCN(CC2CC2)CC1`, the XC50 is reported as 1.15 µM.
`COc1c(C2CCN(CCCCNC(=O)c3ccc(-c4ccc(C#N)cc4)cc3)CC2)ccc2c1C(C)(C)CCC2(C)C` showed an XC50 of 0.411 µM.
`O=S(=O)(NCCN1CCCC1)c1ccc(-c2cccc(CNCCc3cccs3)c2)cc1` was tested, and the XC50 was 0.928 µM.
For `CN(C)c1ccc(-c2ccc(C(=O)NC3CCN(Cc4ccc(F)cc4)CC3)s2)cc1`, the XC50 was 1.05 µM.
Molecule `Cc1ccccc1N1CCN(c2ccc(C(=O)Nc3ccccc3)cn2)CC1` has an XC50 of 0.587 µM.
`CCc1ccc(S(=O)(=O)Nc2ccc(CCN3CCC(N4CCCCC4)CC3)cc2)cc1` was tested, and the XC50 was 0.988 µM.
For `CC1CCC(NCc2c(O)ccc3ccccc23)CC1` (configuration not stated), the XC50 was 0.772 µM.
In the case of `Cc1cccc(C(=O)N2CCN(Cc3cccc(NC(=O)c4cccs4)c3)CC2)c1`, the XC50 is reported as 0.221 µM.
`N#CCCN1CCN(Cc2ccc(-c3ccc(-c4nc5cc(F)ccc5[nH]4)s3)cc2)CC1` gave an XC50 of 0.659 µM.
`OCC1CCN(Cc2ccc(-c3ccc(-c4nc5cc(F)ccc5[nH]4)s3)cc2)CC1` was tested, and the XC50 was 0.85 µM.
Molecule `CCOc1cc2ncnc(Nc3ccc(OCc4c(F)cccc4F)c(OC)c3)c2cc1OCC` has an XC50 of 0.821 µM.
`O=C(CC(=O)C(F)(F)F)c1ccccc1[N+](=O)[O-]` showed an XC50 of 0.0032 µM.
For `O=C(NC1c2ccccc2Oc2ccccc21)c1ccccc1O`, the XC50 was 0.844 µM.
